{
  "source": "paper PMC11304236",
  "about": "“A Novel Drug Candidate for Sepsis Targeting Heparanase by Inhibiting Cytokine Storm” (Advanced Science, 2024)",
  "key": {"TNF-α, IL-6, IL-1β": {"system": "TNF-α, IL-6, IL-1β", "assay": "Cytokine ELISA in serum and organs of LPS-induced septic mice", "type": "in vivo, mouse", "settings": "40 mg kg−1, 30 min after LPS 20 mg kg−1 i.p.; 3 h after LPS; vs LPS group", "procedure": "For LPS‐induced sepsis model experiments, twenty male C57BL/6J mice were randomly divided into four groups (n = 5 in each group). Mice in group 1 were injected with 0.9% NaCl, while mice in groups 2–4 were injected intraperitoneally with LPS (20 mg kg^−1). After 30 min, mice in group 3 were injected with 40 mg kg^−1 CV122 and mice in group 4 were injected with 40 mg kg^−1 Suramin. After 3 h, blood was taken and the lungs, liver, spleen, kidney heart, and brain were taken. For CLP experiments, the mice were euthanized 24 h after the establishment of the sepsis model. Blood samples were collected from the eyeballs of mice, the lungs were taken. These organs were ground at 0.1 g mL^−1 in PBS, centrifuged and the supernatant collected. Serum and organ tissue supernatants were used to detect cytokine levels using the mouse TNF‐α, IL‐6, IL‐1β ELISA MAXTM Deluxe Set."}, "HUVECs": {"system": "HUVECs", "assay": "Cell survival assay (CCK-8) in HUVECs", "type": "cell-based, human"}, "LPS-induced septic mice": {"system": "LPS-induced septic mice", "assay": "LPS-induced sepsis mouse model, survival", "type": "in vivo", "settings": "40 mg kg−1 s.c. 30 min after LPS 40 mg kg−1 i.p.; 80 h or longer observation; LPS group 0%", "procedure": "For LPS‐induced sepsis model experiments, 25 male C57BL/6J mice, 6–8 weeks old, weighing 20–25 g, were randomly divided into five groups (n = 5 in each group), and survival was examined. The abdominal cavity was injected with 40 mg kg^−1 LPS to induce sepsis. 30 min later, mice in group 1 were injected subcutaneously with 0.9% NaCl, mice in groups 2–4 were injected subcutaneously with CV122 (20 mg kg^−1), CV122 (30 mg kg^−1), and CV122 (40 mg kg^−1), respectively, and mice in group 5 were injected subcutaneously with Suramin (40 mg kg^−1). The status of the mice was observed and recorded every day."}},
  "data": [
    {"smiles": "Cc1ccc(C(=O)Nc2ccc(S(=O)(=O)O)c3cc(S(=O)(=O)O)cc(S(=O)(=O)O)c23)cc1NC(=O)c1cccc(NC(=O)Nc2cccc(C(=O)Nc3cc(C(=O)Nc4ccc(S(=O)(=O)O)c5cc(S(=O)(=O)O)cc(S(=O)(=O)O)c45)ccc3C)c2)c1", "note": "[Suramin, reference compound]", "values": [
      {"measurement": "TNF-α, IL-6 and IL-1β levels in serum and lungs", "setting": "TNF-α, IL-6, IL-1β", "value": "suppress the cytokine release but to a lesser extent"},
      {"measurement": "effect on survival of HUVECs", "setting": "HUVECs; 100 µM, *p < 0.05", "value": "significant inhibitory effect"},
      {"measurement": "effect on survival of HUVECs", "setting": "HUVECs; 200 µM, **p < 0.01", "value": "significant inhibitory effect"},
      {"measurement": "survival rate", "setting": "LPS-induced septic mice", "value": 60, "unit": "%"}
    ]}
  ]
}
